The assay addresses Norepinephrine transporter (Rattus norvegicus, UniProt Q9JIA2).

As usually defined, the Ki is the dissociation constant of the complex between target and ligand, obtained from inhibition or displacement. `CN1Cc2c(N)cccc2[C@H](c2ccccc2)C1` [(+/-)-2-Methyl-4-phenyl-1,2,3,4-tetrahydro-isoquinolin-8-ylamine] gave a Ki of 15.9 nM.
